Laboratory results: patent publication US20090124819A1, “2-SUBSTITUTED VITAMIN D DERIVATIVES” (WISCONSIN ALUMNI RESEARCH FOUNDATION, priority 2001, published 2009)

biological target: T1, bovine thymus VDR (Bos taurus, UniProt Q28037); assay: Binding to bovine thymus vitamin D receptor (VDR), displacement of [3H]-1α,25-dihydroxyvitamin D3; settings: X=(y/x)×100 from concentrations inhibiting 50% of [3H]-1α,25-dihydroxyvitamin D3 binding; 1α,25-dihydroxyvitamin D3 taken as 100
T1 construct: Bovine thymus VDR was purchased from Yamasa Biochemical; purchased Yamasa Biochemical (Choshi, Chiba Prefecture, Japan) lot; 112831; host or cells: bovine thymus
T1 sequence (Q28037 1-426): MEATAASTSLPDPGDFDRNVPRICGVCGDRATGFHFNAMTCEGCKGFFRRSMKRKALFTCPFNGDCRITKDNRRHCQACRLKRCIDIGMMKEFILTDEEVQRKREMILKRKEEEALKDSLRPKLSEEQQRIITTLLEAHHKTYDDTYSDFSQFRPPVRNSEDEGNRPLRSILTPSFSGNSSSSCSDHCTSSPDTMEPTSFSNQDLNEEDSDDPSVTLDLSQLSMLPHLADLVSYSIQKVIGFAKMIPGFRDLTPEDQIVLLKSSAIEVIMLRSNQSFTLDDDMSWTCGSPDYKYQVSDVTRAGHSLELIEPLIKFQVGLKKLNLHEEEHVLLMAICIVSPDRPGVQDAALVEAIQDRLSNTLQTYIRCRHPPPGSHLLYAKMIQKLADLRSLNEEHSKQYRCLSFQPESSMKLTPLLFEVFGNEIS
Description: The capability of the vitamin D derivatives of the present invention to bind to bovine thymus VDR was tested.
The vitamin D derivatives of the present invention used were the compounds synthesized in the above-described examples, i.e., (5Z,7E)-(1S,3R)-2,2-dimethyl-9,10-seco-5,7,10(19)-cholestatrien-1,3,25-triol (compound 21), (5Z,7E)-(1R,3S)-2,2-dimethyl-9,10-seco-5,7,10(19)-cholestatrien-1,3,25-triol (compound 22), (5Z,7E)-(1S,3S)-2,2-dimethyl-9,10-seco-5,7,10(19)-cholestatrien-1,3,25-triol (compound 23), and (5Z,7E)-(1R,3R)-2,2-dimethyl-9,10-seco-5,7,10(19)-cholestatrien-1,3,25-triol (compound 24).
In connection with each of compounds 21 to 24 and 1α,25-dihydroxyvitamin D3 (used as a standard), ethanol solutions at various concentrations were prepared in the following manner: In the case of 1α,25-dihydroxyvitamin D3, serial dilutions were prepared at concentrations of 5 nanograms, 500 picograms, 250 picograms, 125 picograms, 63 picograms, 32 picograms, 16 picograms, 8 picograms, 4 picograms, 2 picograms, 1 picogram, 0.5 picogram, and 0.25 picogram as the amount of the compound contained in 50 microliters. In the case of the 1α,3β-compound and the 1α,3α-compound for the configurations of the substituents at the 1-position and the 3-position, serial dilutions were prepared at concentrations of 500 nanograms, 50 nanograms, 25 nanograms, 13 nanograms, 6.3 nanograms, 3.2 nanograms, 1.6 nanograms, 800 picograms, 400 picograms, 200 picograms, 20 picograms, and 2 picograms. In the case of the 1β,3β-compound and the 1β,3α-compound for the configurations of the substituents at the 1-position and the 3-position, serial dilutions were prepared at concentrations of 500 nanograms, 50 nanograms, 5 nanograms, 500 picograms, and 50 picograms.
Bovine thymus VDR was purchased from Yamasa Biochemical (Choshi, Chiba Prefecture, Japan; lot. 112831), and one ampoule thereof (ca. 25 mg) was dissolved in 55 ml of 0.05 M phosphate-0.5 M potassium buffer (pH 7.4).
The ethanol solution […] of each of compounds 21 to 24 or 1α,25-dihydroxyvitamin D3 and the receptor solution (500 μl) were placed in a test tube, and pre-incubated for 1 hour at room temperature. Then, a [^3H]-1α,25-dihydroxyvitamin D3 solution (50 μl) was added at a final concentration of 0.1 nM, and the mixture was incubated overnight at 4° C. Dextran-coated charcoal was added to the reaction mixture, followed by mixing. […] The supernatant (500 μl) was mixed with ACS-II (9.5 ml) (Amersham, England) for radioactivity measurement.
The relative VDR-binding potency of each of Compounds 21 to 24 was calculated from the following equation, with the VDR-binding potency of 1α,25-dihydroxyvitamin D3 being taken as 100. […]

| Binding potency (relative VDR-binding potency) | SMILES |
| --- | --- |
| <0.001 | C=C1/C(=C\C=C2/CCC[C@@]3(C)C2CCC3[C@H](C)CCCC(C)(C)O)C[C@@H](O)C(C)(C)[C@H]1O (stereo partly drawn) [Compound 24, (5Z,7E)-(1R,3R)-2,2-Dimethyl-9,10-seco-5,7,10(19)-cholestatrien-1,3,25-triol] |
| 3 | C=C1/C(=C\C=C2/CCC[C@@]3(C)C2CCC3[C@H](C)CCCC(C)(C)O)C[C@@H](O)C(C)(C)[C@@H]1O (stereo partly drawn) [Compound 21, (5Z,7E)-(1S,3R)-2,2-Dimethyl-9,10-seco-5,7,10(19)-cholestatrien-1,3,25-triol] |
| 0.005 | C=C1C(=CC=C2CCCC3(C)C2CCC3C(C)CCCC(C)(C)O)CC(O)C(C)(C)C1O [Compound 22, (5Z,7E)-(1R,3S)-2,2-Dimethyl-9,10-seco-5,7,10(19)-cholestatrien-1,3,25-triol] |
| 0.06 | C=C1/C(=C\C=C2/CCC[C@@]3(C)C2CCC3[C@H](C)CCCC(C)(C)O)C[C@H](O)C(C)(C)[C@@H]1O (stereo partly drawn) [Compound 23, (5Z,7E)-(1S,3S)-2,2-Dimethyl-9,10-seco-5,7,10(19)-cholestatrien-1,3,25-triol] |
